In test [1] the target is T1, ABL1 (Homo sapiens, UniProt P00519).
T1 construct: purchased Carna Biosciences
Kind of test: Luminescence-based ABL kinase assay (ADP-Glo, 300 μM ATP). The test is classed as biochemical. In a few lines: (§1)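 ABL1 (3.325 nM in the enzyme solution) was preincubated with compound for 30 min at RT in HEPES pH 7.5 buffer with MgCl2, EGTA, DTT, BSA and Brij-35. Adding Peptide 2 and ATP (6 μM and 1.2 mM in the start solution) began a 90 min RT reaction. ADP-Glo luminescence gave % activity and IC50.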
For orientation: ADP-Glo first removes unused ATP, then detects ADP through luciferase.

Test [2] addresses ABL1 (T315I) (Homo sapiens, UniProt P00519, T315I). Kind of test: Luminescence-based ABL kinase assay (ADP-Glo, 300 μM ATP), T315I mutant. The test is classed as biochemical. Summed up:
as §1

Test [3] relates to HL60 cells. Put plainly: HL60 cell proliferation assay (CellTiter-Glo). The test is classed as cell-based. The settings on record: Homo sapiens, HL-60, 72 h, CellTiter-Glo viability, read-out: Cell Line (IC50, nM) HL60. In a few lines:
(§2)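 Cells in IMDM/10% FBS seeded at 2,000 (K562) or 1,500 (HL60) per well, exposed to serially diluted compounds for 72 h at 37 °C, 5% CO2. Viability by CellTiter-Glo luminescence, normalized between DMSO (high) and cell-free media (low) controls.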
(In general: In ATP-based viability assays light output follows the ATP content of the culture.)

In test [4] the test system is pCRKL in K562 cells. Kind of test: pCRKL ELISA assay in K562 cells. The note with it: Homo sapiens, 1.5 h, 90 minutes incubation, read-out: PCRKL ELISA, Cell Line IC50 (nM) K562. The test is classed as cell-based. The procedure:
(§3) K562 or Ba/F3 ABL T315I cells (2.0*10^5 cells/100 μl/well) were seeded in 96 well (Corning, cat #3799). Compounds were dissolved in DMSO, serially diluted in DMSO and then were added, mixed, and incubated for 90 minutes at 37° C., 5% CO2. Following the 90-minute incubation, plates were centrifuged for 5 min at 3000 RPM and supernatant was removed from each well. Cells were washed 3 times with 150 μl PBS prior to addition of 100 μl cell RIPA lysis buffer (Boston BioProducts, cat #BP-115D) supplied with 1×complete ULTRA cocktail inhibitor (Roche, 05892791001) and 1×PhosSTOP Phosphatase Inhibitor Cocktail Tablets (Roche, 04906837001). Cells were incubated with lysis buffer for 1 hour at 4° C. prior to storage at −80 C.
(§4) A capture antibody able to detect phosphorylated and non-phosphorylated CRKL (R&D Systems, cat #AF5127) was added to Meso Scale Discovery (MSD) standard bind plates (MSD, cat #L15XA-3) at 5 ug/mL and incubated at 4° C. overnight. The next day, plates were washed with PBS+0.05% Tween20 (PBST) and 150 μl of 5% BSA blocking solution was added for 1 hour at room temperature with shaking. Plates were washed with PBST. Lysates were thawed and 30 μl of lysate was added to the MSD plates and incubated for 2 hours at room temperature with shaking. MSD plates were washed with PBST and 30 μl of a detection antibody that binds phosphorylated pCRKL (R&D Systems, cat #MAB6910) was added at 1 μg/mL to each well. Plates were incubated for 1 hour at room temperature with shaking. Plates were washed with PBST prior to addition of 30 μl of a sulfo tagged goat anti mouse detection antibody (MSD cat #R32AC-1). Plates were incubated for 1 hour at room temperature with shaking. Plates were washed with PBST prior to addition of 150 ul of 1×MSD read buffer T (MSD, cat 4R92TC-2). Electrochemiluminescence (ECLU) was read on an MSD plate reader (Meso Scale Discovery). The remaining activity by calculated as follows: 00 Relative activity=100×(ELCUsample−ECLULC)/(ECLUHC−ECLULC). The low and high controls (LC/HC) are generated from lysate from wells without cells or with cells treated with 0.1% DMSO, respectively. IC50 values were calculated using XLFit software using a nonlinear regression model with a sigmoidal dose response and are shown in Table 4 and Table 5 below.

Test [5] relates to K562 cells. Kind of test: K562 cell proliferation assay (CellTiter-Glo). The test is classed as cell-based. The note with it: Homo sapiens, K562, 72 h, CellTiter-Glo viability, read-out: Cell Line (IC50, nM) K562. In a few lines: as §2
The subject of test [6] is pCRKL in Ba/F3 ABL1 (T315I) cells. Put plainly: pCRKL ELISA assay in Ba/F3 ABL T315I cells. The test is classed as cell-based. The note with it: Mus musculus, BaF3, 1.5 h, 90 minutes incubation, read-out: pCRKL ELISA, Cell Line IC50 (nM) Ba/F3 ABL1 (T315I). How it is done: as §3, §4
(In general: ELISA stands for enzyme-linked immunosorbent assay.)

The structures appear in SMILES notation. A value given as a limit tells only on which side of the number the result lay.

Among the data in US20240043420A1, “7-AZAINDOLE COMPOUNDS FOR INHIBITION OF BCR-ABL TYROSINE KINASES” (EnLiven Therapeutics, Inc., priority 2020, published 2024) are IC50 values, retold here.

As for `COc1ncccc1-c1c[nH]c2nc(NC(=O)[C@@H]3C[C@@H]3F)ccc12` [Compound 27, (1S,2S)-2-fluoro-N-(3-(2-methoxypyridin-3-yl)-1H-pyrrolo[2,3-b]pyridin-6-yl)cyclopropane-1-carboxamide], the IC50 is 29 nM in test [1]; 20.2 nM in test [2]; over 10000 nM in test [3]; 164 nM in test [4]; 156 nM in test [5]; 183 nM in test [6].

`COc1ncc(F)c(OC)c1-c1c[nH]c2nc(NC(=O)[C@@H]3C[C@@H]3F)ccc12` [Compound 76, (1S,2S)-2-fluoro-N-[3-(5-fluoro-2,4-dimethoxypyridin-3-yl)-1H-pyrrolo[2,3-b]pyridin-6-yl]cyclopropane-1-carboxamide]: the IC50 in test [1] is 5.14 nM; in test [2], 7.38 nM; in test [3], over 10000 nM; in test [4] it was 65.4 nM; in test [5] it was 35.8 nM; in test [6] it was 50.1 nM.

In the case of `COc1ccc(F)cc1-c1n[nH]c2nc(NC(=O)[C@@H]3C[C@@H]3F)ccc12` [Compound 98, (1S,2S)-2-fluoro-N-[3-(5-fluoro-2-methoxyphenyl)-1H-pyrazolo[3,4-b]pyridin-6-yl]cyclopropane-1-carboxamide], the IC50 in test [1] was 16.4 nM; in test [2], 12.9 nM; in test [3], over 10000 nM; in test [4], 174 nM; in test [5], 106 nM; in test [6], 241 nM.

Consider `COc1ccccc1-c1n[nH]c2nc(NC(=O)[C@@H]3C[C@@H]3F)ccc12` [Compound 54, (1S,2S)-2-fluoro-N-[3-(2-methoxyphenyl)-1H-pyrazolo[3,4-b]pyridin-6-yl]cyclopropane-1-carboxamide], for which the IC50 is 14.3 nM in test [1]; 16.3 nM in test [2]; over 10000 nM in test [3]; 95.8 nM in test [4]; 88.4 nM in test [5]; 198 nM in test [6].
